Source: PMC2211469, “Viroporin potential of the lentivirus lytic peptide (LLP) domains of the HIV-1 gp41 protein” (Virology Journal, 2007)

Test: Tb3+/DPA microwell plate leakage assay
Conditions: positive control, complete dissolution of membranes
Method: The Tb^3+/DPA assay, a high throughput leakage assay developed by Rausch and Wimley, 2001, was employed in order to determine each LLP peptide's ability to disturb lipid membrane integrity. […] To this end, Tb^3+ was entrapped in Large Unilamellar Vesicles composed of 10% POPG: 90% POPC diluted in a KPO4 buffer containing DPA. Only upon membrane disruption was terbium able to come into contact with DPA in the buffer generating a fluorescent complex. Various ratios of peptide:lipid were incubated together in a microwell plate and the resulting fluorescence emissions were monitored under UV irradiation. LLP -1, -2, and -1D peptides used in this study were not NBD labeled, but were N-terminally labeled with a tryptophan residue for quantification.
To prepare Tb^3+ LUVs, lipids were resuspended to 100 mM concentration in 50 mM Tb^3+, 100 mM sodium citrate, 10 mM TES pH 7.2. Gel Filtration on Sephadex G-200 was used to elute LUVs and remove unencapsulated Tb^3+ in a buffer of 10 mM TES and 325 mM NaCl. Final lipid concentrations were determined by phosphate analysis. […] Finally, samples were heated in a water bath with AmMo and ascorbic acid for 10–15 minutes and absorbance at 660 nm was measured. Concentrations were determined by comparison to a standard curve generated using known KPO4 concentrations. […]

Triton X-100
leakage of vesicles: 100%
